Source: patent publication US4568490A, “Aminopropylaminobleomycin derivatives and process for preparation thereof” (Zaidan Hojin Biseibutsu Kagaku Kenkyu Kai, priority 1981, dated 1986)

How the values were obtained:
[1] = system: Mycobacterium smegmatis ATCC 607; experiment: Antimicrobial activity, agar plate-cylinder method; format: cell-based; settings: Cu-free form; bleomycin A2 (Cu-free form) standard assumed 1,000 mcg/mg
Method: (§1) The activity was assayed against the above test microorganisms by the method of agar plate-cylinder, assuming the potency of bleomycin A2 (Cu-free form), used as standard, to be 1,000 mcg/mg.

Bacillus subtilis = experiment: Antimicrobial activity, agar plate-cylinder method; format: cell-based; settings: Cu-free form; bleomycin A2 (Cu-free form) standard assumed 1,000 mcg/mg
Method: (1) Antimicrobial activity against Mycobacterium smegmatis ATCC 697 and Bacillus subtilis.
as §1

Hela S3 cells = experiment: Growth inhibitory activity against Hela S3 cells; format: cell-based; settings: Cu-free form; Hela S3, 3 days incubation with compound
Method: The percentage growth inhibition was calculated using the equation: […] wherein A is the ultimate number of cells on the third day from the addition of a test sample, B is the ultimate number of cells in the control (without the addition of test sample), and C is the number of cells on the day of addition of the test sample.

ICR strain mice = experiment: Pulmonary toxicity (pulmonary fibrosis) in mice, intraperitoneal injection; format: in vivo; settings: 5 mg/kg i.p. once a day for 10 days; for Grade of pulmonary fibrosis, % / Incidence of pulmonary fibrosis, % / Incidence: number of mice suffering from pulmonary fibrosis / Grade: total score of pulmonary fibrosis/total number of test animal: autopsy after 5 weeks; for Incidence: number of mice suffering from pulmonary fibrosis: affected/total mice; for Grade: total score of pulmonary fibrosis/total number of test animal: score 0-6 points; for Grade of pulmonary fibrosis, Ratio / Incidence of pulmonary fibrosis, Ratio: reference of the ratio not stated
Procedure, shortened: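 Male ICR mice, 15 weeks old, 9 per group, received 5 mg/kg intraperitoneally once daily for 10 days. They were autopsied after 5 weeks' observation for pulmonary fibrosis incidence and grade: 1, alveolar exudate/septal fibrosis-like change; 2, fibrosis in several areas; 4, scattered fibrosis; 6, fibrosis over >2/3 of area.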

ICR mice = experiment: Pulmonary toxicity (pulmonary fibrosis) in mice, intratracheal instillation; format: in vivo; settings: 16 μg/50 μl/mouse intratracheally, sacrificed 4 weeks after instillation; for Grade: total score of pulmonary fibrosis/total number of samples: score 0-6 points
[2] = system: Lymphocytic leukemia P-388; experiment: In vivo antitumor activity, murine lymphocytic leukemia P-388; settings: BDF1-SLC mice, i.p. transplant, once daily for 9 days, 30 days observation; T/C more than 130 effective
Method: The following data with respect to the testing of a group of the presently claimed substances in vivo according to a standard test method involving murine lymphocytic leukemia P-388 is presented to lend further assurance as to the utility of the compounds as inhibitors of mammalian tumors.
Lymphocytic leukemia P-388 cells (1×10^5 /0.2 ml) were transplanted intraperitoneally into male BDF1 -SLC mice (5 mice/group). Each of the compounds of this invention was diluted with physiological saline to various concentrations. Each dilution was administered at a dose of 0.1 ml/10 g of body weight once daily for 9 days, starting on the day after the day of the transplantation. The mice of the control group were administered physiological saline.
The average number of days that the group receiving the compound of this invention survived was calculated. The figure obtained was divided by the average number of survival days for the control group, and was multiplied by 100 (T/C (%)).
T/C value more than 130 was considered to be effective.

SMILES | Antimicrobial potency of Cu--free compound, against Mycobacterium smegmatis ATCC 607 [1] | Antimicrobial potency of Cu--free compound, against Bacillus subtilis (Bacillus subtilis) | 50% growth inhibition concentration (ID50) of Cu--free compound against cultured Hela cell (Hela S3 cells) | Grade of pulmonary fibrosis, % (ICR strain mice) | Incidence of pulmonary fibrosis, % (ICR strain mice) | Incidence: number of mice suffering from pulmonary fibrosis (ICR strain mice) | Grade: total score of pulmonary fibrosis/total number of test animal (ICR strain mice) | Grade of pulmonary fibrosis, Ratio (ICR strain mice) | Incidence of pulmonary fibrosis, Ratio (ICR strain mice) | Grade of pulmonary fibrosis, % (ICR mice) | Incidence of pulmonary fibrosis, % (ICR mice) | Incidence: number of mice with pulmonary fibrosis/number of mice (ICR mice) | Grade: total score of pulmonary fibrosis/total number of samples (ICR mice) | Max. T/C on Mouse Lymphocytic Leukemia P 388 [2]
Cc1c(N)nc(C(CC(N)=O)NCC(N)C(N)=O)nc1C(=O)NC(C(=O)NC(C)C(O)C(C)C(=O)NC(C(=O)NCCc1nc(-c2nc(C(=O)NCCCN(C)CCCNCc3ccc(OCc4ccccc4)c(OCc4ccccc4)c3)cs2)cs1)C(C)O)C(OC1OC(CO)C(O)C(O)C1OC1OC(CO)C(O)C(OC(N)=O)C1O)c1cnc[nH]1 (stereo not drawn) [compound 15] | 4516 mcg potency per mg | 1772 mcg potency per mg | 0.36 µg/mL | 4% | 11% | 1/9 | 1/27 | 0.05 | 0.18 | 4% | 13% | 1/8 | 1/24 | 165%
Cc1c(N)nc(C(CC(N)=O)NCC(N)C(N)=O)nc1C(=O)NC(C(=O)NC(C)C(O)C(C)C(=O)NC(C(=O)NCCc1nc(-c2nc(C(=O)NCCCN(C)CCCNCC3CCCCCCC3)cs2)cs1)C(C)O)C(OC1OC(CO)C(O)C(O)C1OC1OC(CO)C(O)C(OC(N)=O)C1O)c1cnc[nH]1.Cl.Cl.Cl (stereo not drawn) [Compound No. 22] | 22860 mcg potency per mg | 12300 mcg potency per mg | 0.45 µg/mL | 0% | 0% | 0/9 | 0/27 | 0.000 | 0.00 | – | – | – | – | 174%
CC[N+](CC)(CCCNCCc1ccc(Cl)cc1)CCCNC(=O)c1csc(-c2csc(CCNC(=O)C(NC(=O)C(C)C(O)C(C)NC(=O)C(NC(=O)c3nc(C(CC(N)=O)NCC(N)C(N)=O)nc(N)c3C)C(OC3OC(CO)C(O)C(O)C3OC3OC(CO)C(O)C(OC(N)=O)C3O)c3cnc[nH]3)C(C)O)n2)n1 (stereo not drawn) [compound 46, 3-{N,N--Diethyl-N--[3'-(2"-p-chlorophenylethylamino)propyl]amino}propylaminoBLM] | 17480 mcg potency per mg | 13310 mcg potency per mg | 0.52 µg/mL | 0% | 0% | 0/9 | 0/27 | 0.00 | 0.00 | – | – | – | – | 150%
Cc1c(N)nc(C(CC(N)=O)NCC(N)C(N)=O)nc1C(=O)NC(C(=O)NC(C)C(O)C(C)C(=O)NC(C(=O)NCCc1nc(-c2nc(C(=O)NCCC[N+](C)(C)CCCN(Cc3ccccc3)Cc3ccccc3)cs2)cs1)C(C)O)C(OC1OC(CO)C(O)C(O)C1OC1OC(CO)C(O)C(OC(N)=O)C1O)c1cnc[nH]1 (stereo not drawn) [compound 35, 3-{N,N--Dimethyl-N--[3'-(dibenzylamino)propyl]amino}propylaminoBLM] | 13784 mcg potency per mg | 1742 mcg potency per mg | 0.87 µg/mL | 0% | 0% | 0/9 | 0/27 | 0.00 | 0.00 | 8% | 25% | 2/8 | 2/24 | 153%
Cc1c(N)nc(C(CC(N)=O)NCC(N)C(N)=O)nc1C(=O)NC(C(=O)NC(C)C(O)C(C)C(=O)NC(C(=O)NCCc1nc(-c2nc(C(=O)NCCC[N+](C)(C)CCC[N+](C)(C)CCCNCC3CCCCCCC3)cs2)cs1)C(C)O)C(OC1OC(CO)C(O)C(O)C1OC1OC(CO)C(O)C(OC(N)=O)C1O)c1cnc[nH]1 (stereo not drawn) [Compound No. 42, 3-{N,N--Dimethyl-N--[3'-(N,N--dimethyl-N--(3"-cyclooctylmethylaminopropyl)amino)propyl]amino}propylaminoBLM] | 26000 mcg potency per mg | 14600 mcg potency per mg | 0.51 µg/mL | 0% | 0% | 0/9 | 0/27 | 0.00 | 0.00 | – | – | – | – | 177%
Cc1c(N)nc(C(CC(N)=O)NCC(N)C(N)=O)nc1C(=O)NC(C(=O)NC(C)C(O)C(C)C(=O)NC(C(=O)NCCc1nc(-c2nc(C(=O)NCCC[N+](C)(CCCN(Cc3ccccc3)Cc3ccccc3)Cc3ccccc3)cs2)cs1)C(C)O)C(OC1OC(CO)C(O)C(O)C1OC1OC(CO)C(O)C(OC(N)=O)C1O)c1cnc[nH]1 (stereo not drawn) [compound 39, 3-{N--Methyl-N--benzyl-N--[3'-(dibenzylamino)propyl]amino}propylaminoBLM] | 7746 mcg potency per mg | 580 mcg potency per mg | 2.30 µg/mL | 0% | 0% | 0/9 | 0/27 | 0.00 | 0.00 | 15% | 22% | 2/9 | 4/27 | 163%
Cc1c(N)nc(C(CC(N)=O)NCC(N)C(N)=O)nc1C(=O)NC(C(=O)NC(C)C(O)C(C)C(=O)NC(C(=O)NCCc1nc(-c2nc(C(=O)NCCCN(C)CCCN(Cc3ccccc3)Cc3ccccc3)cs2)cs1)C(C)O)C(OC1OC(CO)C(O)C(O)C1OC1OC(CO)C(O)C(OC(N)=O)C1O)c1cnc[nH]1 (stereo not drawn) [compound 27, 3-{N--Methyl-N--[3'-(dibenzylamino)propyl]amino}propylaminoBLM] | 14194 mcg potency per mg | 1138 mcg potency per mg | 0.89 µg/mL | 7% | 20% | 1/5 | 1/15 | 0.08 | 0.32 | 7% | 22% | 2/9 | 2/27 | 149%
Cc1c(N)nc(C(CC(N)=O)NCC(N)C(N)=O)nc1C(=O)NC(C(=O)NC(C)C(O)C(C)C(=O)NC(C(=O)NCCc1nc(-c2nc(C(=O)NCCCN3CCN(CCCNCC4CCCCCCC4)CC3)cs2)cs1)C(C)O)C(OC1OC(CO)C(O)C(O)C1OC1OC(CO)C(O)C(OC(N)=O)C1O)c1cnc[nH]1 (stereo not drawn) [compound 45, 3-[4-(3-Cyclooctylmethylaminopropyl)piperazin-l-yl]propylaminoBLM] | 43000 mcg potency per mg | 15100 mcg potency per mg | 0.81 µg/mL | 0% | 0% | 0/9 | 0/27 | 0.00 | 0.00 | – | – | – | – | 163%
